Details of series [1]: method as in Gasthuys et al., 2017a. As to conditions: pigs of 7 weeks of age; ref Gasthuys et al., 2017a; cited from earlier work.
A short description of series [2]: Pharmacokinetics and renal clearance of a renal marker cocktail after IV bolus in 7-week-old male pigs. As to conditions: for CL renal: plasma and urine.
Source text: (§1) Eight healthy, stress resistant, 6-week-old male piglets (Landrace × Large White × Maximus, Seghers Hybrid®, Wuustwezel, Belgium) were recruited for this study. Upon arrival piglets were group-housed in standard pig stables (2.30 × 2.40 m) with ad libitum access to water and feed (Piggistart Opti®, Aveve, Leuven, Belgium). During the whole experimental period, stables were enriched with rubber toys, balls of different size, and cotton towels. After a 5-day acclimatization period, a double-lumen jugular catheter was inserted following the procedure described by Gasthuys et al., permitting accurate intravenous (IV) administration of the renal markers and blood collection ([Gasthuys et al., 2017b]). During anesthesia, a human stoma ring (Esteem synergy® Uro, 48 mm, ConvaTec, Belgium) was attached around the prepuce of the piglets to allow urine collection ([Gasthuys et al., 2017b]). After surgery, the pigs were housed individually to avoid displacements of the catheters and stoma rings. Catheters were flushed at least twice daily with heparinized 0.9% NaCl (50 IU/ml), and the bandages were changed daily.
(§2) After a one day recovery period, urine pouches were attached to the stoma ring just before administration of the drugs. […] Blood was sampled via the other lumen of the catheter at 0, 5, 15, 30, 45, and 60 min, and 2, 4, 6, 8, 12, 24, 36, 48, and 72 h post administration and collected into K3EDTA collection tubes (Vacutest®, Piove die Sacco, Kima, Italy). The samples were kept on ice and centrifuged (2,095 × g, 10 min, 4°C) within 2 h. Multiple timed urine collections were performed over a 48 h time period. The total volume of urine voided in each time period was registered. Aliquots of plasma were stored at ≤−80°C until analysis. Urine samples were initially stored at −20°C for 6 weeks, but were subsequently stored at −80°C for further storage.
(§3) Total plasma iohexol and PAH concentrations were quantified simultaneously using a validated ultrahigh performance liquid chromatography tandem mass spectrometry (UHPLC-MS/MS) method as previously described by [Dhondt et al. (2019)] […] The same UHPLC method was used for analysis of PAH in urine samples with slight modifications. The LLOQ was 0.25 µg/ml.
(§4) Pharmacokinetic modeling of the plasma concentration–time data was performed using Phoenix® 8.1 (Certara, Cary, NC, USA). Values below the LOQ were excluded from the dataset. […] A multiplicative error model was used. […] The estimated primary parameters were volume of distribution (Vd) and total body clearance (CLTOT). Also the following secondary parameters were calculated: elimination half-life (T1/2el), elimination rate constant (Ke), volume of distribution at steady state (Vss), and the area under the curve from time 0 h to infinity (AUC0→inf).
(§5) The cumulative amount of unchanged compound recovered in the urine (Ae) was calculated taking the sum of the amount excreted at every collection point. This amount was calculated by multiplying the observed concentration by the volume collected at every collection point.
(§6) where AUC0→inf is the area under the plasma concentration–time curve extrapolated to infinity. […] The AUC0→48h was calculated by noncompartmental analysis (NCA) using the linear up-log down trapezoidal method. The nonrenal clearance (CLNR) was obtained by subtracting the CLR from CLTOT. The CLTOT of iohexol is a measure for the GFR. The CLR of PAH is used to estimate the ERPF. The filtration fraction (FF) was calculated by
The conditions of series [3]: pig, in vivo, iv.
Source text: as §1, §2, §3, §4, §5, §6
Series [4] has as its system plasma proteins. The arrangement: method as in Humphrey et al., 1985. The conditions noted are these: other species like humans, dogs, rats, and mice; ref Humphrey et al., 1985; cited from earlier work.
The conditions of series [5]: healthy human adults, ref Gross et al. (2001), cited from earlier work; for Net tubular reabsorption (CLREA): fluconazole given orally; for Net tubular secretion (CLSECR): pindolol given orally.
In series [6] the test system is plasma proteins. Description: In vitro plasma protein binding by ultrafiltration in spiked pig plasma. It counts as in vitro ADME. As to conditions: 39°C, fluconazole corrected for NSB. How it is done:
Three aliquots of each concentration level were analyzed the same way as the pharmacokinetic (PK) study samples as described above to determine the total plasma concentration. Three other aliquots of each concentration were incubated for 1 h in a hot water bath of 39°C to replicate the pig's core body temperature and subsequently transferred onto an ultrafiltration device. […] Thereafter, the obtained filtrate was analyzed in the same way as the PK study samples to determine the unbound plasma concentration. The following equation was used to determine the unbound fraction in plasma: […]
The duration of centrifugation was reduced to 2.5 and 1.0 min for Microcon® and Amicon® filters, respectively.
Cunbound,corrected=Cunbound,measured/1-NSB

For series [7] the following is noted: humans, cited from earlier work.
Series [8] has as its system porcine kidney. On the set-up: method as in Gyrd-Hansen and Rasmussen (1970). As to conditions: in vivo, pigs; ref Gyrd-Hansen and Rasmussen (1970); cited from earlier work.
The subject of series [9] is plasma proteins. On the set-up: method as in Hsyu and Giacomini, 1985. As to conditions: humans; ref Hsyu and Giacomini, 1985; cited from earlier work.
Series [10] deals with ERPF and GFR. The arrangement: method as in Epstein et al., 1985. As to conditions: dogs, IV administration; ref Epstein et al., 1985; cited from earlier work.
Details of series [11]: method as in Friedli et al., 1986. The conditions noted are these: pigs with induced myocardial infarction, IV 0.05 mg/kg; ref Friedli et al., 1986; cited from earlier work.
The conditions of series [12]: humans; ref Schwarz, 1982; cited from earlier work.
The test system of series [13] is GFR. The conditions noted are these: hypertensive patients, ref Wainer et al., 1980, cited from earlier work.
Where [14] appears, read: 7-week-old male pigs, indexed to BSA, mean ± SD.
The mark [15] stands for this setting: male, Landrace × Large White × Maximus (Seghers Hybrid), pig, plasma, iv.
Where [16] appears, read: corrected for estimated mean BSA.
The mark [17] stands for this setting: male, Landrace × Large White × Maximus (Seghers Hybrid), pig, plasma, iv, 0.5 mg/kg.

Values joined by “and” are separate entries in the source; they are usually repeats but may differ in a detail not shown here. Identical values can stand only once. Like-named read-outs stand apart in the source and are kept apart here.

With `CC(=O)N(CC(O)CO)c1c(I)c(C(=O)NCC(O)CO)c(I)c(C(=O)NCC(O)CO)c1I` (centres unmarked) [Iohexol, iohexol], the Iohexol clearance in series [1] is recorded as 100.92 ± 20.84 ml/min/m². In addition, the “GFR = CLTOT IOH” value in series [2] (setting [14]) is reported as 97.87 ± 16.05 ml/min/m². Also, the clearance in series [2] (male, Landrace × Large White × Maximus (Seghers Hybrid), pig, plasma, intravenous, 64.7 mg/kg BW) was 4.12 ± 0.54 mL/min/kg; in series [2] (setting [15]), 4.12 ± 0.54 mL/min/kg.
In turn, `OC(Cn1cncn1)(Cn1cncn1)c1ccc(F)cc1F` [Fluconazole, fluconazole] had a CLNR in [3] (male, Landrace × Large White × Maximus (Seghers Hybrid)) of 0.13 ± 0.039 mL/min/kg. Moreover, the Plasma protein binding in series [4] is on record as ~ 12%. For the same compound, the “Net tubular reabsorption (CLREA)” value in series [5] (setting [16]) is 49.21 ± 15.34 ml/min/m²; in [5] (corrected for mean BW 72 kg), 1.29 ± 0.40 mL/min/kg. Moreover, the CL renal was 0.32 ± 0.05 mL/min/kg in series [2] (male, Landrace × Large White × Maximus (Seghers Hybrid), pig, iv, 0.5 mg/kg, CLR, IV bolus, 7-week-old male pigs, n = 6, Ae/AUC0→inf (fluconazole: Ae 48 h/AUC0→48h), mean ± SD); 0.33 ± 0.06 mL/min/kg in series [2] (male, Landrace × Large White × Maximus (Seghers Hybrid), pig, iv, 0.5 mg/kg, Renal clearance calculated over a time period of 24 h, pigs, IV 0.5 mg/kg, data up to 24 h); 0.32 ± 0.05 mL/min/kg in series [2] (male, Landrace × Large White × Maximus (Seghers Hybrid), pig, iv, 0.5 mg/kg, Renal clearance estimated over 48 h, pigs, IV 0.5 mg/kg, data up to 48 h). In addition, the clearance in series [2] (setting [15]) was 0.45 ± 0.049 mL/min/kg; in [2] (setting [17]), 0.45 ± 0.05 mL/min/kg. Further, the Vd in [2] (setting [17]) amounted to 0.98 ± 0.04 L/kg. The compound also gave a half-life in [2] (setting [17]) of 25.7 ± 2.75 h. The same compound had a k el in series [2] (setting [17]) of 8.33e-06 s⁻¹.
In the case of `CC(C)NC[C@H](O)COc1cccc2[nH]ccc12` [S-pindolol], the “Fu, free, non-protein bound, fraction” value in series [6] is on record as 0.62 ± 0.00^3.
For `Nc1ccc(C(=O)NCC(=O)O)cc1` [PAH, para-aminohippuric acid], the “Fu, free, non-protein bound, fraction” value in series [6] is reported as 1.0. In series [3], this compound had a CLR of 9.51 ± 2.44 mL/min/kg. For the same compound, the “Nonrenal clearance as share of total drug elimination” value in [7] (ref Prescott et al., 1993) is recorded as 15 to 30%. The “Plasma concentration at which saturation of the transport system is observed” value in series [7] (ref Tett et al., 2003) was 300 to 600 µg/mL. The “Amount of PAH acetylated by the porcine kidney, mean” value in [8] was −0.1%. In addition, the “ERPF = CLR PAH” value in series [5] (setting [16]) was 247.09 ml/min/m² and 247.09 ± 77.25 ml/min/m²; in series [5] (corrected for mean BW 72 kg), 6.48 ± 2.02 mL/min/kg; in series [2] (setting [14]), 226.77 ml/min/m² and 226.77 ± 62.45 ml/min/m²; in [2] (7-week-old male pigs, indexed to BW, mean ± SD), 9.51 ± 2.44 mL/min/kg. In addition, the “Net tubular secretion (CLSECR)” value in series [5] (setting [16]) is 189.95 ml/min/m² and 189.95 ± 70.90 ml/min/m²; in series [5] (corrected for mean BW 72 kg) it was 4.99 mL/min/kg and 4.99 ± 1.86 mL/min/kg. This compound showed a Urinary recovery in series [2] (IV bolus, 7-week-old male pigs, fraction of dose recovered unchanged in urine, n = 6) of 30.09 ± 5.06%. The CLNR in series [2] (IV bolus, 7-week-old male pigs, n = 6, CLTOT minus CLR, mean ± SD) was 22.02 mL/min/kg and 22.02 ± 3.76 mL/min/kg. In addition, the “Ae, cumulative amount of unchanged compound recovered in the urine” value in [2] (IV bolus, 7-week-old male pigs, urine collected over 48 h, n = 6, mean ± SD) is given as 29,512 ± 5751 µg. The same compound had a CLTOT in series [2] (Table 1, IV bolus, 7-week-old male pigs, iohexol n = 8, others n = 6, mean ± SD) of 31.53 ± 5.38 mL/min/kg. Moreover, the “Contribution of nonrenal elimination to total clearance” value in series [2] (pigs) is reported as “approximately 70%”. The “PAH plasma concentrations reached” value in series [2] (pigs, IV bolus 10 mg/kg BW) is listed as “below 30 µg/ml”.
For `CC(C)NC[C@@H](O)COc1cccc2[nH]ccc12` [R-pindolol], the “Fu, free, non-protein bound, fraction” value in series [6] is listed as 0.19 ± 0.03^3.
`CC(C)NCC(O)COc1cccc2[nH]ccc12` (centres unmarked) [pindolol]: the fu in series [9] is 0.45. Further, in series [10], the “Effect on ERPF and GFR” value is “slight but insignificant decrements in ERPF and GFR”. Further, the Hemodynamical changes entry in series [11] is “did not induce any hemodynamical changes”. Besides, in series [12], the “Urinary excretion of unchanged pindolol” value is recorded as 35%. For the same compound, in series [13] (IV administration), the “Decrease in GFR against baseline, average” value is listed as 4.37% and the “Decrease in GFR against baseline, range” value was 0.96−9.43%. For the same compound, the “Effect on GFR against baseline” value in series [13] (oral administration) is reported as “no significant effect”.
As to sinistrin, the results for the “GFR (renal clearance of sinistrin)” value in series [5] (setting [16]) and in series [5] (corrected for mean BW 72 kg) were 68.78 ± 21.16^2 ml/min/m² and 1.81 ± 0.56^2 ml/min/kg, respectively.

The record behind these values is article PMC7303324, “Conventional Pig as Animal Model for Human Renal Drug Excretion Processes: Unravelling the Porcine Renal Function by Use of a Cocktail of Exogenous Markers” (Frontiers in Pharmacology, 2020).
